{"source": "patent US20110312961A1", "about": "“2,5-Disubstituted Morpholine Orexin REceptor Antagonists” (priority 2008, published 2011)", "key": {"[1]": {"assay": "Aqueous solubility of salts (salt screen)", "format": "physicochemical", "details": "target 10 mg/ml at 25° C., unbuffered"}, "[2]": {"system": "ovalbumin-sensitized mice", "assay": "Airway hyperresponsiveness (Penh) and BALF cell counts", "format": "in vivo, mouse", "method": "Using the method of Hamelmann et al, (2S,3R)—N-2-((3-pyridinyl)methyl)-1-azabicyclo[2.2.2]oct-3-yl)-3,5-difluorobenzamide was evaluated for possible inhibition of airway hyper-responsiveness in mice. Briefly, ovalbumin (OVA)-sensitized animals, 12 animals per group, were challenged by nasal inhalation with aerosolized 5% OVA for 25 min on days 21, 23, and 25. The mice were treated with vehicle or (2S,3R)—N-2-((3-pyridinyl)methyl)-1-azabicyclo[2.2.2]oct-3-yl)-3,5-difluorobenzamide subcutaneously (s.c.) twice daily from day 21 to day 26 or once daily intratracheally (i.t.), preceding ovalbumin aerosol challenge by 30 min on days 21, 23 and 25 as well as methacholine challenge or bronchoalveolar lavage fluids (BALF) harvest on day 26. Dexamethasone, the reference standard, was administered at 3 mg/kg orally (p.o.) once daily 60 min before OVA challenge on day 21, 23 and 25 and 60 min before methacholine provocation or BALF harvest on day 26. Noninvasive measurements of airway responsiveness were performed by using whole body plethysmography, in which increases in enhanced pause (Penh) serve as an index of airway obstruction. Responses to inhaled methacholine were measured and calculated as percentage of respective baseline values. Unpaired Students t-test was used for comparison between the vehicle control and the sham group; one-way ANOVA and Dunnett's post-hoc analyses were applied for comparison between the vehicle control and treated groups. Statistical significance is considered at P<0.05."}, "[3]": {"system": "db/db mouse", "assay": "Murine model of type 2 diabetes mellitus (db/db)", "format": "in vivo", "details": "MLA 3 mg/kg daily via gavage with Compound A 1.0 mg/kg, obese mice", "source_text": "The db/db mouse, a well established model of type 2 diabetes mellitus, is a leptin-deficient mutant that expresses an obese phenotype and also commonly expresses metabolic symptoms including hyperglycemia, hyperlipidemia and hyperinsulinemia (Halaas et al., 1995 and Lee et al., 1996). This experimental animal model of diabetes was employed in a study designed to determine the effects of (2S,3R)—N-2-((3-pyridinyl)methyl)-1-azabicyclo[2.2.2]oct-3-yl)-3,5-difluorobenzamide on body mass and several additional metabolic parameters.\nIn this study, (2S,3R)—N-2-((3-pyridinyl)methyl)-1-azabicyclo[2.2.2]oct-3-yl)-3,5-difluorobenzamide was repeatedly administered orally (via gavage) at 1.0 mg/kg once daily starting from the age of approximately 3 weeks and continuing throughout the 7-week study. Nondiabetic heterozygote littermate mice (db/+; designated “Db”) were used as controls. Body weight and food intake were determined twice weekly. The α7 antagonist methyllycaconitine (MLA) was also given concurrently via gavage at 3 mg/kg daily to selected cohorts of db/db (designated “db”) or db/+mice. At the end of the 7-week dosing regimen, total growth rates (overall body weight gain) and average daily food intake were calculated. In addition, glucose levels were assessed in mice fasted overnight. Furthermore, blood sample analytes from mice fasted overnight were collected for measurements of tumor necrosis factor-a (TNF-α), triglycerides and glycosylated hemoglobin (HbA1c). All data are expressed as mean±SEM. For each parameter investigated, differences among all groups were compared by one-way ANOVA with post-hoc Neuman-Keuls multiple comparison test."}, "[4]": {"system": "STZ rat model of diabetic neuropathy", "assay": "Streptozotocin (STZ)-induced diabetic neuropathy, Von Frey allodynia", "format": "in vivo", "details": "150 mg/kg i.p., 2 hours before testing, all treatment days, vs pretreatment and vehicle, p<0.01", "source_text": "Peripheral neuropathy, a major complication of diabetes, often results in spontaneous pain or the perception of pain from contact with a normally non-noxious stimulus. Such neuropathic pain is experienced by 20-24% of diabetic patients, or approximately 30 million people worldwide (Schmader, 2002). The streptozotocin (STZ)-induced diabetes model in rats provides a means to evaluate the efficacy of test compounds that offer therapeutic potential for peripheral neuropathy and to understand their putative mechanism of action. In this model, a single injection of STZ, an antibiotic that mimics clinical diabetes by causing irreversible damage to the pancreatic β and α-cells leads to chronic hyperglycemia, nerve dysfunction and pain sensitivity. The current study utilizes the STZ rat model of diabetic neuropathy to investigate the effects of (2S,3R)—N-2-((3-pyridinyl)methyl)-1-azabicyclo[2.2.2]oct-3-yl)-3,5-difluorobenzamide on mechanical allodynia, an assessment of pain.\nDiabetes was induced by a 0.5 ml injection of streptozotocin (60 mg/kg) dissolved in citrate buffer (pH) into the tail vein of each rat The development of diabetes was confirmed by measuring the blood glucose levels (BGL) of all animals on study day 3 (BGL>300 mg/dL). […] These animals were tested again for their BGL at study day 23.\n(2S,3R)—N-2-((3-pyridinyl)methyl)-1-azabicyclo[2.2.2]oct-3-yl)-3,5-difluorobenzamide (0.1, 1 or 10 mg/kg p.o.) was administered as a solution of the hydrochloride salt in water once daily starting on study day 14 or study day 16 and continuing through study day 21 or 23, respectively. The control article gabapentin (in 0.9% saline, 150 mg/kg i.p.) was only administered on allodynia test days. Test item, vehicle or control article administration was based on evaluation of allodynia on study day 14. If allodynia was not present on study day 14, the animal was evaluated again at study day 16. Pain response was measured either on study days 14 and 21 or 16 and 23, 30 minutes after Test Item administration.\nFor the allodynia assessments, Von Frey filaments were used according to the methods of Chaplan and colleagues (1994). Briefly, the rats were placed in an enclosure and positioned on a metal mesh surface, but allowed to move freely. The rats' cabins were covered with red cellophane to diminish environmental distributions. The test began after cessation of exploratory behavior.\nWhen the tip of a Von Frey fiber of given length and diameter was pressed against the skin at right angles, the force of application increases as long as the researcher continued to advance the probe until the fiber bent. After the fiber bent, the probe was advanced, causing the fiber to bend more, but without additional force being applied. The animal would indicate sensation by pulling back its paw. In the absence of a paw withdrawal response to the initially selected filament, a stronger stimulus was presented; in the event of paw withdrawal, the next weaker stimulus was chosen. In this fashion, the resulting pattern of positive and negative responses was used to determine the paw withdrawal threshold.\nThe set of Von Frey monofilaments provide an approximate logarithmic scale of actual force and a linear scale of perceived intensity. Below is a table showing the force (g) and its corresponding size of monofilaments.\nAll normally distributed data are presented as means±SEM, as well as the animals' individual values followed by a student T-test (Software: Microsoft® Excel). A p value <0.05 is considered to represent a significant difference. Due to the non-normal distribution of the allodynia data, descriptions of those data are provided as both mean (±SEM) and median values in order to represent their imprecise nature and skewed distribution."}, "[5]": {"system": "CD-1 mice", "assay": "Formalin test", "format": "in vivo, mouse", "details": "5 mg/kg s.c., positive control", "method": "One of the most clinically predictive screening models of acute pain is the formalin test in mice (LeBars et al., 2001). In this paradigm, originally described by Dubuisson and Dennis (1977), a diluted solution of formalin is injected into the plantar surface of a subject's (rat or mouse) rear paw and nociceptive behavior is measured; for instance, licking and biting of the injected paw. Two phases of the response are observed. First an early phase, starting immediately after injection and lasting 5-10 minutes, followed by a late phase that can last from 15-60 minutes after injection. Nociceptive response is attributed to direct chemical stimulation in the early phase and inflammation/persistent pain in the later phase (Dubuisson and Dennis, 1977). The response in the late phase also depends on changes in processing of information in the spinal cord due to the afferent barrage during the early phase (Coderre et al., 1990). An advantage of the test is that two different types of stimuli are employed in the same assay to study the possibility of varying analgesic effects of a drug in the two phases of the test (Tjølsen and Hole, 1997).\nSubjects (adult male CD-1 mice (Charles River, Raleigh, N.C.) weighing approximately 20-25 grams) were removed from their home cage and weighed, then placed in a clear Plexiglas™ observation box for an acclimation period of 20-30 minutes. Mice were then removed from the observation chambers and (2S,3R)—N-2-((3-pyridinyl)methyl)-1-azabicyclo[2.2.2]oct-3-yl)-3,5-difluorobenzamide (as the hydrochloride salt in 0.9% saline) (1, 3 or 10 mg/kg s.c. (calculated with respect to the free base)), morphine (5 mg/kg; s.c.) or 0.9% saline vehicle was administered subcutaneously in a volume of 1 mL/kg. Mice were then returned to the chamber for the predetermined pretreatment time of 30 minutes for (2S,3R)—N-2-((3-pyridinyl)methyl)-1-azabicyclo[2.2.2]oct-3-yl)-3,5-difluorobenzamide and morphine.\nAfter the test compound pretreatment time, the animals were injected with formalin solution (2.5% derived as a 1:4 dilution of 10% phosphate buffered formalin solution (Sigma):distilled water). The subject's assigned paw was gasped gently and formalin solution was injected into the paw intra-dermally in the middle on the dorsal side. Once injected, the subject was immediately returned to its observation chamber and a timer was started to mark the beginning of Phase I. Each subject was videotaped for the entire 40-minute session. […] The time spent licking during that 1 min interval was recorded, and the presence or absence of paw favoring was noted.\nFor data analyses, phase I of the test was defined as 0 to 5 minutes after formalin injection, and phase II was defined as 20 to 40 minutes after formalin injection. The time spent licking during the 1 minute intervals during those time frames was recorded and graphed as mean±S.E.M. For comparisons across treatment groups, 1-way analyses of variance (ANOVAs) were performed for each phase of the session with treatment as the […] variable. Post-hoc analyses were performed when appropriate to determine specific group differences."}, "[6]": {"system": "Sprague-Dawley rats", "assay": "Complete Freund's adjuvant (CFA)-induced thermal hyperalgesia", "format": "in vivo, rat", "details": "3 mg/kg s.c., 1 hour after dosing, reference standard", "method": "Injection of complete Freund's adjuvant (CFA) in rats is commonly used to evaluate compounds with potential for use as drugs in treatment of mono-arthritis (osteo-arthritis) and other inflammatory conditions. Signs of hyperalgesia develop within 24 h (Schaible and Grubb, 1993).\n(2S,3R)—N-2-((3-pyridinyl)methyl)-1-azabicyclo[2.2.2]oct-3-yl)-3,5-difluorobenzamide was evaluated for possible analgesia effect in the CFA-induced thermal hyperalgesia test in rats using methods similar to those described by Walker and colleagues (2003). Briefly, adult male Sprague-Dawley rats (BioLasco, Taiwan) weighing 180±20 g on receipt were randomly assigned to treatment groups of n=8 per group. Animals each received a sub plantar injection (0.1 mL) of CFA (DIFCO, 264010; 0.1% solution) to the right hind paw at 24 h prior to experimental testing. Thermal hyperalgesia was tested using a Paw/Tail stimulator analgesia meter (IITC Model-336G, IITC, USA) with a thermally regulated glass floor set at 30° C. […] The time required for the animal to withdraw the paw from the thermal stimulus was automatically recorded. […]\nTwenty-four hours after CFA injection, subjects were pre-selected (for clear presence of thermal hyperalgesia) for experimentation only if the latency to withdrawal was less than 75% of the baseline. […] The post-treatment level of thermal hyperalgesia was then measured at 60 minutes post-treatment. […]"}}, "data": [{"smiles": "O=C(N[C@@H]1C2CCN(CC2)[C@H]1Cc1cccnc1)c1cc(F)cc(F)c1.O=C(N[C@@H]1C2CCN(CC2)[C@H]1Cc1cccnc1)c1cc(F)cc(F)c1.O=C(O)c1ccc(O)cc1", "note": "[4-Hydroxybenzoate mono salt]", "values": [{"measurement": "Aqueous Solubility", "setting": "[1]", "result": ">10000", "unit": "µg/mL"}]}, {"smiles": "C[C@@H]1C[C@H]2[C@@H]3CCC4=CC(=O)C=C[C@]4(C)[C@@]3(F)[C@@H](O)C[C@]2(C)[C@@]1(O)C(=O)CO", "note": "[Dexamethasone, reference compound]", "values": [{"measurement": "methacholine (10 and 30 mg/mL)-induced increase in Penh values", "setting": "[2]; 3 mg/kg PO once daily, reference standard", "result": "significant inhibition"}, {"measurement": "increase in total WBC, neutrophils, lymphocytes, monocytes and eosinophils in BALF", "setting": "[2]; 3 mg/kg p.o. once daily", "result": "inhibited significantly"}]}, {"smiles": "O=C(N[C@@H]1C2CCN(CC2)[C@H]1Cc1cccnc1)c1cc(F)cc(F)c1.O=C(O)/C=C/C(=O)O", "note": "[Fumarate mono salt]", "values": [{"measurement": "Aqueous Solubility", "setting": "[1]", "result": ">10000", "unit": "µg/mL"}]}, {"smiles": "Cl.O=C(N[C@@H]1C2CCN(CC2)[C@H]1Cc1cccnc1)c1cc(F)cc(F)c1", "note": "[Hydrochloride mono salts]", "values": [{"measurement": "Aqueous Solubility", "setting": "[1]", "result": ">10000", "unit": "µg/mL"}]}, {"smiles": "CCN1C[C@]2(COC(=O)c3ccccc3N3C(=O)C[C@H](C)C3=O)CC[C@H](OC)[C@@]34[C@@H]5C[C@H]6[C@H](OC)[C@@H]5[C@](O)(C[C@@H]6OC)[C@@](O)([C@@H](OC)[C@H]23)[C@@H]14", "note": "[MLA, methyllycaconitine, reference compound]", "values": [{"measurement": "effect of MLA co-administration on the inhibition of fasting plasma glucose", "setting": "[3]", "result": "not reversed"}, {"measurement": "effect of MLA co-administration on the reduced food consumption", "setting": "[3]", "result": "failed to show the reduced daily average food consumption"}, {"measurement": "effect of MLA co-administration on the reduced weight gain", "setting": "[3]", "result": "failed to show the reduced weight gain"}, {"measurement": "effect of MLA co-administration on the reduction in glycosylated HbA1c", "setting": "[3]", "result": "attenuated"}, {"measurement": "effect of MLA co-administration on the reduction in triglycerides", "setting": "[3]", "result": "not attenuated"}, {"measurement": "effect of MLA co-administration on the reduction of TNF alpha", "setting": "[3]", "result": "inhibited"}]}, {"smiles": "O=C(N[C@@H]1C2CCN(CC2)[C@H]1Cc1cccnc1)c1cc(F)cc(F)c1.O=P(O)(O)O", "note": "[Phosphate mono salts]", "values": [{"measurement": "Aqueous Solubility", "setting": "[1]", "result": ">10000", "unit": "µg/mL"}]}, {"smiles": "NCC1(CC(=O)O)CCCCC1", "note": "[gabapentin, reference compound]", "values": [{"measurement": "tactile allodynia", "setting": "[4]", "result": "reversed the tactile allodynia significantly"}]}, {"smiles": "CN1CC[C@]23c4c5ccc(O)c4O[C@H]2[C@@H](O)C=C[C@H]3[C@H]1C5", "note": "[morphine, reference compound]", "values": [{"measurement": "efficacy, phase I", "setting": "[5]", "result": "efficacious"}, {"measurement": "efficacy, phase II", "setting": "[5]", "result": "efficacious"}, {"measurement": "analgesic effect on CFA-induced thermal hyperalgesia", "setting": "[6]", "result": "significant analgesic activity"}]}]}
